Experimental data from patent US8592460B2, “Amino-pyridine derivatives as S1P1 /EDG1 receptor agonists” (Actelion Pharmaceuticals Ltd., priority 2007, dated 2013).

tested on: circulating lymphocytes; test: Assessment of in vivo efficacy: circulating lymphocytes after oral administration; set-up: species or system rat; details: 6 h after oral administration of 10 mg/kg to normotensive male Wistar rats, compared to vehicle-treated group; mean ± SEM
Procedure: The efficacy of the compounds of formula (I) is assessed by measuring the circulating lymphocytes after oral administration of 3 to 30 mg/kg of a compound of formula (I) to normotensive male Wistar rats. The animals are housed in climate-controlled conditions with a 12 h-light/dark cycle, and have free access to normal rat chow and drinking water. Blood is collected before and 3, 6 and 24 h after drug administration. Full blood is subjected to hematology using Advia Hematology system (Bayer Diagnostics, Zurich, Switzerland).
All data are presented as mean±SEM. Statistical analyses are performed by analysis of variance (ANOVA) using Statistica (StatSoft) and the Student-Newman-Keuls procedure for multiple comparisons. The null hypothesis is rejected when p<0.05.
Lymphocyte counts 6 h after oral administration have been measured for 39 of the 258 exemplified compounds and are in the range of −82% to −48% with an average of −65%.

Structure (SMILES)	Lymphocyte counts [%]
CCc1cc(-c2nc(-c3cc(C)nc(N(CC)CC)c3)no2)cc(C)c1OC[C@@H](O)CNC(=O)CO [Example 80, N—((S)-3-{4-[3-(2-diethylamino-6-methyl-pyridin-4-yl)-[1,2,4]oxadiazol-5-yl]-2-ethyl-6-methyl-phenoxy}-2-hydroxy-propyl)-2-hydroxy-acetamide]	−68 ± 2
CCc1cc(-c2nnc(-c3cc(C)nc(N(CC)CC)c3)s2)cc(C)c1OC[C@@H](O)CNC(=O)CO [Example 94, N—((S)-3-{4-[5-(2-diethylamino-6-methyl-pyridin-4-yl)-[1,3,4]thiadiazol-2-yl]-2-ethyl-6-methyl-phenoxy}-2-hydroxy-propyl)-2-hydroxy-acetamide]	−75 ± 6
COc1cc(-c2noc(-c3cc(C)nc(N(C)C(C)C)c3)n2)cc(Cl)c1OC[C@@H](O)CO [Example 149, (S)-3-(2-chloro-4-{5-[2-(isopropyl-methyl-amino)-6-methyl-pyridin-4-yl]-[1,2,4]oxadiazol-3-yl}-6-methoxy-phenoxy)-propane-1,2-diol]	−82 ± 2
CCc1cc(-c2noc(-c3cc(C)nc(N4CCCC4)c3)n2)cc(C)c1OC[C@@H](O)CNC(=O)CO [Example 188, N—((S)-3-{2-ethyl-6-methyl-4-[5-(2-methyl-6-pyrrolidin-1-yl-pyridin-4-yl)-[1,2,4]oxadiazol-3-yl]-phenoxy}-2-hydroxy-propyl)-2-hydroxy-acetamide]	−76 ± 1
CCc1cc(-c2noc(-c3cc(C)nc(NC(C)C)c3)n2)cc(C)c1OC[C@@H](O)CO [Example 199, (S)-3-{2-ethyl-4-[5-(2-isopropylamino-6-methyl-pyridin-4-yl)-[1,2,4]oxadiazol-3-yl]-6-methyl-phenoxy}-propane-1,2-diol]	−72 ± 3
